Measurements reported in US11952330B2, “Antibiotic ammonium compounds and methods for the treatment of bacterial infections” (priority 2019, dated 2024).
Where two headings read alike, the source gives them in different places.

Legend:
S. aureus = experiment: MIC by broth dilution, S. aureus; type: cell-based; settings: for selectivity for Gram positive microbes over Gram negative microbes, in words: S. aureus vs A. baumannii; for MIC: Staphylococcus aureus, Mueller-Hinton broth
Summary of the method: (§1)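 Broth dilution in Mueller-Hinton broth with 2-fold compound steps over 1–256 μg/mL (final) and 5×10^5 CFU/mL inoculum, incubated overnight at 37 °C. The MIC is the lowest concentration without visible turbidity, from at least biological duplicates of technical triplicates. A parallel series was supplemented with 5% (final) human plasma.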

A. baumannii [1] = experiment: MIC by broth dilution, A. baumannii; type: cell-based; settings: Acinetobacter baumannii, Mueller-Hinton broth
Summary of the method: as §1

A. baumannii [2] = experiment: MIC by broth dilution in presence of 5% human plasma (esterases), A. baumannii; type: cell-based; settings: for Δ MIC A. baumannii + human plasma: broth supplemented with 5% human plasma (esterases) vs no plasma
Protocol: The antibacterial efficacy of ammonium compounds in the presence of human plasma was assessed. Minimum inhibitory concentrations (MICs) were determined by broth dilution method. Dilutions of each compound, ranging from 1 μg/mL to 256 μg/mL (final concentrations) were prepared in Mueller-Hinton broth. For the plasma containing samples, compound dilutions were made in Mueller-Hinton broth and supplemented with 5% (final %) human plasma (esterases). Compound dilutions were added to wells of a 96-well plate, with the concentration of the compound increasing 2-fold by row. Each well contained 5×10^5 CFU/mL of target bacterium in a total volume of 100 μL. Plates were incubated overnight at 37° C. The following day, plates were evaluated for a visual change in growth to determine the MIC. The concentration value corresponding to the first row that no longer had visible bacterial growth, as evaluated by turbidity in the wells, was recorded as the MIC. MIC values were representative of at least biological duplicates, each made up of technical triplicates.

human red blood cell = experiment: In vitro hemolysis assay; type: cell-based; settings: for % hemolysis at 16 μg/ml / % hemolysis at 32 μg/ml: human RBCs, 37° C., 1 hour; for hemolysis as compared to otilonium bromide (11), in words: 16 and 32 μg/mL; for reduction in hemolysis as compared to otilonium bromide (11): at 32 μg/mL
Protocol: The hemolytic potential of ammonium compounds were assessed in vitro. A human red blood cell solution (RBC) was prepared by washing 400 μL of fresh RBCs twice with 7 mL of 1×PBS (pH 7.4) by centrifugation at 4° C., 2500 rpm for 10 minutes. The precipitates were then resuspended in 4 mL of 1×PBS. Hemolysis testing was performed by mixing 500 μL of freshly prepared test compound solutions at a final concentration of both 16 μg/mL and 32 μg/mL in 1×PBS with 400 μL of the washed human RBCs. Two control samples were prepared by separately mixing 400 μL of washed RBCs with 500 μL of 1×PBS (negative control) and 1% Triton X-100 (w/v). After incubation in a water bath at 37° C. for 1 hour, the samples were centrifuged at 2500 rpm for 10 minutes. 300 μL of the supernatant were collected for measurement in a 96-well plate. The release of hemoglobin was assessed by measuring the absorbance of the samples at 540 nm using 1×PBS as the blank. Hemolysis percent was calculated using Equation 1: […]

[3] = system: enterotoxigenic Escherichia coli (ETEC); experiment: Mouse assay, oral inoculation with ETEC, viable bacteria in intestines; type: in vivo; settings: neonate CD-1 mice, 10^7 CFU oral, compound co-administered at 1 mg/kg, intestines harvested after 4 hours
Protocol: (§2) Mouse assays were used to evaluate the in vivo activity of compound 95. Male and female neonate CD-1 mice were orally innoculated with 10^7 colony forming units of enterotoxigenic Escherichia coli (ETEC) (FIG. 2A) or vancomycin-resistant enterococcus (VRE) (FIG. 2B) and co-administered compound 95 at 1 mg/kg. Intestines were harvested after 4 hours and plated to determine viable bacteria.

[4] = system: vancomycin-resistant enterococcus (VRE); experiment: Mouse assay, oral inoculation with VRE, viable bacteria in intestines; type: in vivo; settings: neonate CD-1 mice, 10^7 CFU oral, compound co-administered at 1 mg/kg, intestines harvested after 4 hours
Protocol: as §2

[5] = no plasma, Table 2, read-out: MIC (μg/ml) S. aureus
[6] = overnight 37° C., Table 1, read-out: MIC (μg/mL) S. aureus
[7] = no plasma, Table 2, read-out: MIC (μg/ml) A. baumannii
[8] = overnight 37° C., Table 1, read-out: MIC (μg/mL) A. baumannii

| MIC (S. aureus; [5]) | MIC (S. aureus; [6]) | MIC (A. baumannii [1]; [7]) | MIC (A. baumannii [1]; [8]) | Δ MIC A. baumannii + human plasma (A. baumannii [2]) | Structure (SMILES) | antimicrobial activity against Gram positive S. aureus relative to otilonium bromide, in words (S. aureus) | selectivity for Gram positive microbes over Gram negative microbes, in words (S. aureus) | stability in the presence of enzymes that are found in the gut, compared with otilonium bromide (11), in words (A. baumannii [2]; 5% human plasma) | % hemolysis at 16 μg/ml (human red blood cell) | % hemolysis at 32 μg/ml (human red blood cell) | hemolysis as compared to otilonium bromide (11), in words (human red blood cell) | reduction in hemolysis as compared to otilonium bromide (11) (human red blood cell) | increase in stability (A. baumannii [2]; 5% human plasma, vs otilonium bromide (11)) | viability and colonization of ETEC in intestines [3] | viability and colonization of VRE in intestines [4] |
| --- | --- | --- | --- | --- | --- | --- | --- | --- | --- | --- | --- | --- | --- | --- | --- |
| < 3 µg/mL | 3 to 30 µg/mL | > 30 µg/mL | > 30 µg/mL |  | CCCCCCCCOc1cccc(OCCCCCCCC)c1C(=O)Nc1ccc(C(=O)OCC[N+](C)(CC)CC)cc1.[Br-] [Compound 17, 2-((4-(2,6-Bis(octyloxy)benzamido)benzoyl)oxy)-N,N-diethyl-N-methylethan-1-aminium bromide] | comparable or better than the activity of otilonium bromide | virtually complete selectivity for Gram positive microbes | better stability than otilonium bromide | 59% | 90% | reduced hemolysis as compared to otilonium bromide |  |  |  |  |
| < 3 µg/mL | < 3 µg/mL | 3 to 30 µg/mL | 3 to 30 µg/mL | 8X | CCCCCCOc1ccccc1C(=O)Nc1ccc(C(=O)OCC[N+](CC)(CC)CCCCC)cc1.[Br-] [Compound 68, N,N-Diethyl-N-(2-((4-(2-(hexyloxy)benzamido)benzoyl)oxy)ethyl)pentan-1-aminium bromide] | comparable or better than the activity of otilonium bromide | improved selective for Gram positive microbes over Gram negative microbes | better stability than otilonium bromide | 2% | 5% | reduced hemolysis as compared to otilonium bromide | 94% |  |  |  |
| 3 to 30 µg/mL | 3 to 30 µg/mL | 3 to 30 µg/mL | 3 to 30 µg/mL | 2X | CCCCCCCOc1cc(F)ccc1C(=O)Nc1ccc(S(=O)(=O)NCC[N+](CC)(CC)CCCC)cc1.[Br-] [Compound 95, N,N-Diethyl-N-(2-((4-(4-fluoro-2-(heptyloxy)benzamido)phenyl)sulfonamido)-ethyl)butan-1-aminium bromide] | comparable or better than the activity of otilonium bromide |  | better stability than otilonium bromide | 3% | 14% | reduced hemolysis as compared to otilonium bromide | 85% | four- to eight-fold | significantly decreased viablity and colonization | significantly decreased viablity and colonization |
| 3 to 30 µg/mL | 3 to 30 µg/mL | 3 to 30 µg/mL | 3 to 30 µg/mL | 8X | CCCCCCCCOc1ccccc1C(=O)Nc1ccc(C(=O)OCC[N+](C)(C)C)cc1.[Br-] [Compound 11, N,N,N-Trimethyl-2-((4-(2-(octyloxy)benzamido)benzoyl)oxy)ethan-1-aminium bromide] |  |  |  | 7% | 92% |  |  |  |  |  |
